According to publication PMC8775902, “Bifunctional Opioid/Melanocortin Peptidomimetics for Use in Neuropathic Pain: Variation in the Type and Length of the Linker Connecting the Two Pharmacophores” (International Journal of Molecular Sciences, 2022):
Where two headings read alike, the source gives them in different places. Where a SMILES comes first, the peptide text is derived from it. Bridges are numbered along the chain shown (N, C = ends). [ ]: non-standard residue; d: D form. d2Nal = N[C@H](Cc1ccc2ccccc2c1)C(=O)O; Nle = CCCC[C@H](N)C(=O)O; Ahx = NCCCCCC(=O)O; βAla = NCCC(=O)O

How the values were obtained:
[1] = biological target: melanocortin-4 receptor (MC4R) (Homo sapiens, UniProt P32245); experiment: Radioligand competitive binding, [125I]-NDP-α-MSH, HEK293 MC4R cells; settings: for IC50: [125I]-NDP-α-MSH, HEK293 MC4R cells, average of two assays in duplicates, read-out: Affinity MC4R IC50 ± SD; for Selectivity MC4R/DOR: calculated as ratio of IC50 values
Chain of melanocortin-4 receptor (MC4R) (P32245 whole entry): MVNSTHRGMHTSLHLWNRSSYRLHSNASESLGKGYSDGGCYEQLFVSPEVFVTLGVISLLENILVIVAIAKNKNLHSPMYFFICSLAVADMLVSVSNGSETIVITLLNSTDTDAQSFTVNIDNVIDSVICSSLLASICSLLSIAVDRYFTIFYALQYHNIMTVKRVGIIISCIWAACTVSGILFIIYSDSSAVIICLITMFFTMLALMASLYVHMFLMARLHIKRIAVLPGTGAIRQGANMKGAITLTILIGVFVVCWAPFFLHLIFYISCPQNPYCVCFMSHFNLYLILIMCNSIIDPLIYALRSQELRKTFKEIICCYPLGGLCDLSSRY
Method: (§1) The determinations for opioid receptors were performed in rat brain homogenates by competitive displacement using selective radioligands, namely [^3H]DAMGO (a radioligand specific for MOR) and [^3H][Ile^5,6]DELT II (a radioligand specific for DOR). The measurement for melanocortin receptor MC4 was performed with the use of HEK293 MC4R cells and [^125I]-NDP-α-MSH radioligand.
HEK293 MC4R were cultured in Earle’s Minimum Essential Medium (EMEM) supplemented with 10% heat inactivated fetal bovine serum (FBS). Cultures were grown under the humidified atmosphere of 5% CO2 in the air at 37 °C, up to 80% settlement of the bottle surface.
HEK293 MC4R cells were seeded around 10^5 cell/well in a 24-well plates two days before the experiment. Just before experiment, cells were washed twice with 0.5 mL of binding buffer (EMEM supplemented with 25 mM HEPES buffer, 0.2% bovine serum albumin, 1 mM 1,10-phenanthroline, 0.5 mg/L leupeptin and 200 mg/L bacitracin). […] The competition between ligands was ended by gentle withdrawal of medium solution, followed by cell washing with 2 × 0.5 mL of cold binding buffer, while the attached cells were lysed using 2 × 0.5 mL of 1 M NaOH. The radioactivity of collected solutions were measured on WIZARD^2 2480 Automatic Gamma Counter (PerkinElmer, Boston, MA, USA) in measurements with decay correlation protocol. All binding parameters were determined using GraphPad Prism Software (GraphPad Software Inc., San Diego, CA, USA). The competition assay determination was based on the normalized dose response in function of logarithm of inhibitor concentration (with variable slope) equation. All the EC50 values were calculated as an average of two separate competition assays performed in duplicates.

[2] = biological target: T1, delta opioid receptor (DOR) (Rattus norvegicus, UniProt P33533); experiment: Competitive radioligand binding, [3H][Ile5,6]DELT II, rat brain homogenate; settings: three determinations in duplicate, read-out: Affinity DOR IC50 ± SD
T1 construct: The determinations for opioid receptors were performed in rat brain homogenates; from tissue; host or cells: rat brain homogenate (membrane fraction)
T1 sequence (P33533 whole entry): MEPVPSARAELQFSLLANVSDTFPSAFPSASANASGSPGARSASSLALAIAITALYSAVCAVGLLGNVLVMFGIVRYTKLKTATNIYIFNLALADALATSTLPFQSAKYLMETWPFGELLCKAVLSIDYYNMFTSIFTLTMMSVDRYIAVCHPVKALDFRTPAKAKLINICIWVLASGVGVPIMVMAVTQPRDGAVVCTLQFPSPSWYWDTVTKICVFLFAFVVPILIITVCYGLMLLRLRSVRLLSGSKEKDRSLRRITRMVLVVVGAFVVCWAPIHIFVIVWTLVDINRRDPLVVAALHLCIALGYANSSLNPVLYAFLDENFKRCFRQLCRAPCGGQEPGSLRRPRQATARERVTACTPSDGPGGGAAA
Method: as §1
(§2) The binding affinity of peptidomimetics 1–9 and reference compoundsTyr-D-Ala-Gly-Phe-NH2 for MOR and DOR was determined in competitive radioligand binding assays according to the method previously described. The specific radioligands were [^3H]DAMGO (DAMGO (a specific MOR ligand) and [^3H][Ile^5,6]DELT II]) (a specific DOR ligand). Membrane fractions of rat brain homogenate were incubated at 25 °C for 60 min in the presence of radioligands (0.5 nM) specific for each receptor and the increasing concentrations of the tested compounds. For measuring non-specific binding, 10 μM naloxone was used as the competitor for opioid receptors. The reactions were carried out in assay buffer containing Tris-HCl (pH 7.4) with an addition of bovine serum albumin (BSA) and protease inhibitors (bacitracin, bestatin, captopril). After the incubation, the binding reactions were terminated by rapid filtration with M-24 Cell Harvester (Brandel/USA) through GF/B Whatman glass fiber strips (pre-soaked with 0.5% PEI in order to minimize non-specific binding). Radioactivity retained on the filters was measured in MicroBeta LS, Trilux scintillation counter (PerkinElmer, USA). The experiments were repeated at least three times in duplicate. The IC50 value for each compound was determined using GraphPad Prism.

[3] = Experimental lipophilicity (P, log P); format: physicochemical
Source text: We also studied experimentally the lipophilicity of the compounds 1–4. The obtained logP values vary only moderately (in the range −2.30 to −2.92, Table S2) and cannot account for the large differences in the antinociceptive activity. It seems then that the lipophilicity is not a factor responsible for the in vivo activity differences.

mu opioid receptor (MOR) = biological target: T2, mu opioid receptor (MOR) (Rattus norvegicus, UniProt P33535); experiment: Competitive radioligand binding, [3H]DAMGO, rat brain homogenate; settings: for IC50: [3H]DAMGO, rat brain homogenate, three determinations in duplicate, read-out: Affinity MOR IC50 ± SD; for Selectivity MOR/DOR: calculated as ratio of IC50 values
T2 construct: The determinations for opioid receptors were performed in rat brain homogenates; from tissue; host or cells: rat brain homogenate (membrane fraction)
T2 sequence (P33535 whole entry): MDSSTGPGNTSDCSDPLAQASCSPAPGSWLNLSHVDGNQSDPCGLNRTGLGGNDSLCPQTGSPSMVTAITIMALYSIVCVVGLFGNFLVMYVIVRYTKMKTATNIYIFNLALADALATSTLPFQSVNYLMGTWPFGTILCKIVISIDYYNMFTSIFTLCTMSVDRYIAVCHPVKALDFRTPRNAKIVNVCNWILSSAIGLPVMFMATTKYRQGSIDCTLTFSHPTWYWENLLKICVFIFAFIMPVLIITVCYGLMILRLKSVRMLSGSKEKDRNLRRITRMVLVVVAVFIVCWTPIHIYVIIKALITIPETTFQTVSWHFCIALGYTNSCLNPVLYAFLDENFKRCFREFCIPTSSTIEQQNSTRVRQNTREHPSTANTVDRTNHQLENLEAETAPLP
Method: as §1, §2

[4] = system: mice subjected to CCI (neuropathic pain); experiment: Von Frey test in CCI-exposed mice (neuropathic pain, allodynia); format: in vivo; settings: 7–14 days after CCI, i.t. administration, 95% confidence limits
Method: (§3) The antinociceptive properties of the peptidomimetics 1–9 were assessed in two types of pain models. The first one included naive mice (acute pain), and the second one included mice exposed to chronic constriction injury (CCI, neuropathic pain model). In the latter of the models, two types of stimuli (mechanical pressure and low temperature) were considered. […] In naive mice, the tail-flick test was used to evaluate the analgesic effect (acute pain model). In CCI-exposed mice, hypersensitivity to mechanical and thermal stimuli was measured by von Frey and cold-plate tests, respectively.
(§4) The surgical procedure was performed according to Bennett and Xie. Under isoflurane anesthesia, an incision was made below the mouse’s right hipbone, and the sciatic nerve was exposed. Three ligatures with 4/0 silk thread were made around the nerve distal to the sciatic notch with 1 mm spacing, until a brief twitch in the respective hind limb was observed. After 7 days of recovery, mice were tested to assess the development of neuropathic pain behavior. […] Main experiments were conducted on days 7–14 after CCI surgical procedure.
Mechanical sensitivity to non-noxious stimuli was measured by applying a set of calibrated nylon monofilaments in increasing value (0.6–6 g; Stoelting, Wood Dale, IL, USA) on a tested hind paw plantar surface, until a behavioral response was observed. Response considered as pain behavior included rapid paw withdrawal, shaking, and licking. In the von Frey test, results are expressed as pressure (g) applied with a calibrated plastic filament to the midplantar surface of the mouse’s injured hind paw (cut-off: 6 g), which elicited a foot withdrawal response.
(§5) The behavioral data are presented as the percentage of the maximal possible antinociceptive effect (% MPE ± SEM), which was calculated according to the following equation: % MPE = [(TL − BL)/(CUT-OFF − BL)] × 100%, where BL is the baseline latency, and TL is the latency obtained after drug injection. The results of the experiments were statistically evaluated using one-way analysis of variance (ANOVA). The differences between the treatment groups throughout the study were further analyzed with Bonferroni post hoc tests. The Litchefield and Wilcoxon method was used to calculate the ED50 value (a dose necessary to produce a 50% response) with 95% confidence limits on quantal data.

naive mice (acute pain) = experiment: Tail-flick test in naive mice (acute pain model); format: in vivo; settings: i.t. administration, 95% confidence limits
Method: as §3
The tail-flick test was performed with use of Tail-Flick Analgesic Meter (Ugo Basile, Comerio, Italy) to evaluate the pain threshold to a thermal stimulus. During the procedure, an animal was placed on the apparatus surface and gently held by the experimenter. A beam of light was focused on a dorsal tail surface, approximately at 1 cm from the tail tip. When the animal flicked its tail, the timer stopped, and the recorded time (latency) was measured. The cut-off time to protect tissue damage was 9 s.
as §5

[5] = system: mice subjected to CCI (neuropathic pain); experiment: Cold plate test in CCI-exposed mice (neuropathic pain, hyperalgesia); format: in vivo; settings: 7–14 days after CCI, i.t. administration, 95% confidence limits
Method: as §3, §4
Sensitivity to noxious thermal stimuli was assessed with usage of Cold/Hot Plate Analgesia Meter, (Ugo Basile, Comerio, Italy). The temperature of the plate was kept at 2 °C, and the cut-off latency was 30 s. The mice were placed on the cold plate, and the time until the hind paw was lifted was recorded, which was considered as a reaction to noxious cold stimulus.
as §5

Row | SMILES | IC50 [1] [nM] | Selectivity MC4R/DOR [1] | IC50 [2] [nM] | logP ([3]; read-out: Lipophilicity Log P) | logP ([3]; read-out: Lipophilicity P) | IC50 (mu opioid receptor (MOR)) [nM] | Selectivity MOR/DOR (mu opioid receptor (MOR)) | ED50 (CL) Mice Subjected to CCI (Neuropathic Pain) Von Frey (Allodynia) [4] | ED50 (CL) Naive Mice (Acute Pain) Tail-Flick (naive mice (acute pain)) | ED50 (CL) Mice Subjected to CCI (Neuropathic Pain) Cold Plate (Hyperalgesia) [5]
1 | CCCC[C@H](NC(=O)[C@@H](C)NC(=O)[C@H](Cc1ccccc1)NC(=O)CNC(=O)[C@@H](C)NC(=O)[C@@H](N)Cc1ccc(O)cc1)C(=O)N[C@H]1CC(=O)NCCCC[C@@H](C(N)=O)NC(=O)[C@H](Cc2c[nH]c3ccccc23)NC(=O)[C@H](CCCNC(=N)N)NC(=O)[C@@H](Cc2ccc3ccccc3c2)NC(=O)[C@H](Cc2c[nH]cn2)NC1=O [Compound 1, ENK-D-Ala-SHU] (H-Y[dA]GF[dA][Nle]DH[d2Nal]RWK-NH2; lactam 7-12) | 0.07 ± 0.01 | 207 | 14.5 ± 1.91 | -2.3 ± 0.02 | -2.3 | 69.6 ± 18.7 | 0.2 |  |  | 
2 | CCCC[C@H](NC(=O)CCNC(=O)[C@H](Cc1ccccc1)NC(=O)CNC(=O)[C@@H](C)NC(=O)[C@@H](N)Cc1ccc(O)cc1)C(=O)N[C@H]1CC(=O)NCCCC[C@@H](C(N)=O)NC(=O)[C@H](Cc2c[nH]c3ccccc23)NC(=O)[C@H](CCCNC(=N)N)NC(=O)[C@@H](Cc2ccc3ccccc3c2)NC(=O)[C@H](Cc2c[nH]cn2)NC1=O [Compound 2, ENK-β-Ala-SHU] (H-Y[dA]GF[βAla][Nle]DH[d2Nal]RWK-NH2; lactam 7-12) | 0.12 ± 0.01 | 190 | 22.8 ± 7.49 | -2.33 ± 0.02 | -2.33 | 104 ± 29.1 | 0.2 | 0.04 (0.03–0.68) nmol | 58.8 (27–128) nmol | 142 (31–654) nmol
3 | CCCC[C@H](NC(=O)CCCCCNC(=O)[C@H](Cc1ccccc1)NC(=O)CNC(=O)[C@@H](C)NC(=O)[C@@H](N)Cc1ccc(O)cc1)C(=O)N[C@H]1CC(=O)NCCCC[C@@H](C(N)=O)NC(=O)[C@H](Cc2c[nH]c3ccccc23)NC(=O)[C@H](CCCNC(=N)N)NC(=O)[C@@H](Cc2ccc3ccccc3c2)NC(=O)[C@H](Cc2c[nH]cn2)NC1=O [Compound 3, ENK-Ahx-SHU] (H-Y[dA]GF[Ahx][Nle]DH[d2Nal]RWK-NH2; lactam 7-12) | 1.83 ± 0.81 | 25 | 45.4 ± 32.3 | -2.43 ± 0.01 | -2.43 | 64 ± 34.6 | 0.7 | 0.0002 (0.00005–0.001) nmol |  | 
4 | CCCC[C@H](NC(=O)CCCCCNC(=O)CCCCCNC(=O)[C@H](Cc1ccccc1)NC(=O)CNC(=O)[C@@H](C)NC(=O)[C@@H](N)Cc1ccc(O)cc1)C(=O)N[C@H]1CC(=O)NCCCC[C@@H](C(N)=O)NC(=O)[C@H](Cc2c[nH]c3ccccc23)NC(=O)[C@H](CCCNC(=N)N)NC(=O)[C@@H](Cc2ccc3ccccc3c2)NC(=O)[C@H](Cc2c[nH]cn2)NC1=O [Compound 4, ENK-(Ahx)2-SHU] (H-Y[dA]GF[Ahx][Ahx][Nle]DH[d2Nal]RWK-NH2; lactam 8-13) | 0.5 ± 0.16 | 45 | 22.3 ± 12.7 | -2.92 ± 0.02 | -2.92 | 5.47 ± 1.38 | 4.1 | 0.01 (0.00002–7.8) nmol |  | 0.1 (0.004–3.4) nmol
